Data as given in patent publication US9738655B2, “Tetrahydroisoquinolines containing substituted azoles as factor XIa inhibitors” (BRISTOL-MYERS SQUIBB COMPANY, priority 2013, dated 2017).
Where a name gives a salt, the structure may show the parent alone. Read-outs that look alike come from different tables or passages of the source.

Tests used:
[1] = target: purified human Factor XIa (Homo sapiens (Human), UniProt P03951); experiment: Factor XIa enzyme inhibition assay (chromogenic substrate S-2366)
Procedure: The effectiveness of compounds of the present invention as inhibitors of the coagulation Factors XIa, VIIa, IXa, Xa, XIIa, plasma kallikrein or thrombin, can be determined using a relevant purified serine protease, respectively, and an appropriate synthetic substrate. The rate of hydrolysis of the chromogenic or fluorogenic substrate by the relevant serine protease was measured both in the absence and presence of compounds of the present invention. […] A decrease in the rate of absorbance or fluorescence change in the presence of inhibitor is indicative of enzyme inhibition. […] The results of this assay are expressed as the inhibitory constant, Ki.
Values of Ki were determined by allowing the protease to react with the substrate in the presence of the inhibitor.

[2] = target: purified human plasma kallikrein (Homo sapiens (Human), UniProt P03952); experiment: Plasma kallikrein enzyme inhibition assay (chromogenic substrate S-2302); assay type: biochemical
[3] = read-out: Factor XIa Ki, measured at 25° C.
[4] = measured at 25° C. (no asterisk)
[5] = measured at 25° C. (no asterisk), TFA salt
[6] = read-out: Factor XIa Ki, measured at 25° C., TFA salt

Sequence of purified human plasma kallikrein (P03952 391-638): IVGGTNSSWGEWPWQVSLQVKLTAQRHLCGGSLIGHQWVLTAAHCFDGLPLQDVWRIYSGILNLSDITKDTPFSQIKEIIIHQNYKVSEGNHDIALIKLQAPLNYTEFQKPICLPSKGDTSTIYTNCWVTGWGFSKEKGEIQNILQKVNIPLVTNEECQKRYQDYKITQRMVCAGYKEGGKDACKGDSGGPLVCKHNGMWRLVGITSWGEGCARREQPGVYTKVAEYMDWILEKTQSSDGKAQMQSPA
Sequence of purified human plasma kallikrein (P03952 20-390 partner): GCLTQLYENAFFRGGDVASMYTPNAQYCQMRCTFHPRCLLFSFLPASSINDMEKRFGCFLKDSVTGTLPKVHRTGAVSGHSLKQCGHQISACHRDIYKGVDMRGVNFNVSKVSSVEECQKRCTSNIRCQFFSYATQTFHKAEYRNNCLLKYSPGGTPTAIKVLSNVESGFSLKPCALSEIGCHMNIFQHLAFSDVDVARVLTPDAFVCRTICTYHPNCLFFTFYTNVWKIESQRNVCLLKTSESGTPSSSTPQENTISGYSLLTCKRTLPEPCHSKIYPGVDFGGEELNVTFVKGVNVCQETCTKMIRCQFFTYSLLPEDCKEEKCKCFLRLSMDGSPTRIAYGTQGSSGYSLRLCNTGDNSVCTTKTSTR
Sequence of purified human Factor XIa (P03951 388-625): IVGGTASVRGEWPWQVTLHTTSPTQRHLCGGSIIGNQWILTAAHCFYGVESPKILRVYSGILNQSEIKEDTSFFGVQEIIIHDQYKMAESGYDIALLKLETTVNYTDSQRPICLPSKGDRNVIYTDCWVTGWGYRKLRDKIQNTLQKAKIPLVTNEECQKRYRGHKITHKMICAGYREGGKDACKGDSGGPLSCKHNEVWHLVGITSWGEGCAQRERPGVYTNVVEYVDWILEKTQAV
Sequence of purified human Factor XIa (P03951 19-387 partner): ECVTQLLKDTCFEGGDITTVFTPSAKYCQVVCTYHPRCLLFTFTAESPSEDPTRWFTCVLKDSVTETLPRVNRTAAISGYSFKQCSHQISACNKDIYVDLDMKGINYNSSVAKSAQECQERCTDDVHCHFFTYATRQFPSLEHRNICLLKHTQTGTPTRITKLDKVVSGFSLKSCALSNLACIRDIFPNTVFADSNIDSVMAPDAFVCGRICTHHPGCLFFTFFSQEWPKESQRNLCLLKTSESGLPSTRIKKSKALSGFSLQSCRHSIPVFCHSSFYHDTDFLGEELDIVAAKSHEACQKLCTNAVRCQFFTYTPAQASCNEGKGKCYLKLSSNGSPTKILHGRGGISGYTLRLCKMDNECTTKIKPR

| Ki [1, 3] [nM] | Ki [2, 4] [nM] | Ki [1] [nM] | Ki ([2]; measured at 37° C. (*)) [nM] | SMILES | further results |
| --- | --- | --- | --- | --- | --- |
| – | – | 188 | 1230 | COC1CCN(c2cccc3c2CCN(C(=O)[C@H]2CC(c4cccc(Cl)c4F)=NO2)[C@H]3C(=O)Nc2cccnc2)CC1 (single isomer, unassigned) [Example 242, TFA salt] | – |
| – | – | < 5 | 37.6 | COC1CCN(c2cccc3c2CCN(C(=O)[C@H]2CC(c4cccc(Cl)c4F)=NO2)[C@@H]3C(=O)Nc2ccc(C(=O)O)cc2F)CC1 (single isomer, unassigned) [Example 243, TFA salt] | – |
| – | – | 38.7 | 635 | COC1CCN(c2cccc3c2CCN(C(=O)[C@H]2CC(c4cccc(Cl)c4F)=NO2)[C@H]3C(=O)Nc2ccc(C(=O)O)cc2F)CC1 (single isomer, unassigned) [Example 244, TFA salt] | – |
| < 5 | – | – | – | CN(C)C(=O)C1CCN(c2cccc3c2CCN(C(=O)C2CC(c4cccc(Cl)c4F)=NO2)C3C(=O)Nc2ccc(C(=O)O)cc2)CC1 (single isomer, unassigned) [Example 278, 4-(2-(3-(3-chloro-2-fluorophenyl)-4,5-dihydroisoxazole-5-carbonyl)-5-(4-(dimethylcarbamoyl)piperidin-1-yl)-1,2,3,4-tetrahydroisoquinoline-1-carboxamido)benzoic acid, TFA salt] | Ki [2, 5]: 1.98 nM |
| < 5 | – | – | – | CN(C)C(=O)C1CCN(c2cccc3c2CCN(C(=O)C2CC(c4cccc(Cl)c4F)=NO2)C3C(=O)Nc2ccc(C(=O)O)cc2)CC1 (single isomer, unassigned) [Example 279, 4-(2-(3-(3-chloro-2-fluoropheny)-4,5-dihydroisoxazole-5-carbonyl)-5-(4-(dimethylcarbamoyl)piperidin-1-yl)-1,2,3,4-tetrahydroisoquinoline-1-carboxamido)benzoic acid, TFA salt] | Ki [2, 5]: 30.8 nM |

Continued, compound first:

| SMILES | Ki [1, 3] [nM] | Ki [2, 4] [nM] | Ki [1] [nM] | Ki ([2]; measured at 37° C. (*)) [nM] | further results |
| --- | --- | --- | --- | --- | --- |
| CN(C)C(=O)C1CCN(c2cccc3c2CCN(C(=O)c2cn(-c4cccc(Cl)c4F)nn2)[C@H]3C(=O)Nc2ccc(C(=O)O)cc2)CC1 (single isomer, unassigned) [Example 57, TFA salt] | 33.1 | 276 | – | – | – |
| CN(C)C(=O)C1CCN(c2cccc3c2CCN(C(=O)c2cn(-c4cccc(Cl)c4F)nn2)[C@@H]3C(=O)Nc2ccc(C(=O)O)cc2)CC1 (single isomer, unassigned) [Example 58, TFA salt] | < 5 | 3.24 | – | – | – |
| CN(C)C(=O)C1CCN(c2cccc3c2CCN(C(=O)c2cnn(-c4cccc(Cl)c4F)c2)[C@H]3C(=O)Nc2ccc(C(=O)O)cc2)CC1 (single isomer, unassigned) [Example 60, TFA salt] | 47.8 | 698 | – | – | – |
| CN(C)C(=O)C1CCN(c2cccc3c2CCN(C(=O)c2cnn(-c4cccc(Cl)c4F)c2)[C@@H]3C(=O)Nc2ccc(C(=O)O)cc2)CC1 (single isomer, unassigned) [Example 61, TFA salt] | < 5 | 5.89 | – | – | – |
| CN(C)C(=O)C1CCN(c2cccc3c2CCN(C(=O)c2cn(-c4cccc(Cl)c4F)cn2)[C@H]3C(=O)Nc2ccc(C(=O)O)cc2)CC1 (single isomer, unassigned) [Example 62, TFA salt] | 74.6 | 399 | – | – | – |
| CN(C)C(=O)C1CCN(c2cccc3c2CCN(C(=O)c2cn(-c4cccc(Cl)c4F)cn2)[C@@H]3C(=O)Nc2ccc(C(=O)O)cc2)CC1 (single isomer, unassigned) [Example 63, TFA salt] | < 5 | 2.71 | – | – | – |
| O=C(O)c1ccc(NC(=O)C2c3cccc(N4CCC(N5CCCC5)CC4)c3CCN2C(=O)C2CC(c3cccc(Cl)c3)=NO2)cc1 (single isomer, unassigned) [Example 203, 4-(2-(3-(3-chlorophenyl)-4,5-dihydroisoxazole-5-carbonyl)-5-(4-(pyrrolidin-1-yl)piperidin-1-yl)-1,2,3,4-tetrahydroisoquinoline-1-carboxamido)benzoic acid, 2 TFA salt] | – | 1.29 | < 5 | – | – |
| O=C(O)c1ccc(NC(=O)C2c3cccc(N4CCC(N5CCCC5)CC4)c3CCN2C(=O)C2CC(c3cccc(Cl)c3)=NO2)cc1 (single isomer, unassigned) [Example 204, 4-(2-(3-(3-chlorophenyl)-4,5-dihydroisoxazole-5-carbonyl)-5-(4-(pyrrolidin-1-yl)piperidin-1-yl)-1,2,3,4-tetrahydroisoquinoline-1-carboxamido)benzoic acid, 2 TFA salt] | < 5 | 11 | – | – | – |
| O=C(O)c1ccc(NC(=O)[C@@H]2c3cccc(N4CCC(N5CCCC5=O)CC4)c3CCN2C(=O)[C@H]2CC(c3cccc(Cl)c3F)=NO2)cc1 (single isomer, unassigned) [Example 207, TFA salt] | – | 30.9 | < 5 | – | – |
| O=C(O)c1ccc(NC(=O)C2c3cccc(N4CCC(N5CCCC5=O)CC4)c3CCN2C(=O)[C@H]2CC(c3cccc(Cl)c3F)=NO2)cc1 (single isomer, unassigned) [Example 208, TFA salt] | < 5 | 447 | – | – | – |
| CN1CCN(c2cccc3c2CCN(C(=O)C2CC(c4cccc(Cl)c4)=NO2)C3C(=O)Nc2ccc(C(=O)O)cc2)CC1 (single isomer, unassigned) [Example 216, 4-(2-(3-(3-chlorophenyl)-4,5-dihydroisoxazole-5-carbonyl)-5-(4-methylpiperazin-1-yl)-1,2,3,4-tetrahydroisoquinoline-1-carboxamido)benzoic acid, 2 TFA salt] | – | 0.36 | < 5 | – | – |
| COC1CCN(c2cccc3c2CCN(C(=O)[C@H]2CC(c4cccc(Cl)c4F)=NO2)[C@@H]3C(=O)Nc2ccccc2F)CC1 (single isomer, unassigned) [Example 235, TFA salt] | – | – | 23.2 | 478 | – |
| COC1CCN(c2cccc3c2CCN(C(=O)[C@H]2CC(c4cccc(Cl)c4F)=NO2)[C@H]3C(=O)Nc2ccccc2F)CC1 (single isomer, unassigned) [Example 236, TFA salt] | – | – | 454 | > 4340 | – |
| COC1CCN(c2cccc3c2CCN(C(=O)[C@H]2CC(c4cccc(Cl)c4F)=NO2)[C@@H]3C(=O)Nc2cccc(F)c2)CC1 (single isomer, unassigned) [Example 237, TFA salt] | – | – | 15.3 | 130 | – |
| COC1CCN(c2cccc3c2CCN(C(=O)[C@H]2CC(c4cccc(Cl)c4F)=NO2)[C@H]3C(=O)Nc2cccc(F)c2)CC1 (single isomer, unassigned) [Example 238, TFA salt] | – | – | 635 | > 4340 | – |
| COC1CCN(c2cccc3c2CCN(C(=O)[C@H]2CC(c4cccc(Cl)c4F)=NO2)[C@@H]3C(=O)Nc2cccnc2)CC1 (single isomer, unassigned) [Example 241, TFA salt] | – | – | 8.78 | 66.7 | – |
| CN1CCN(c2cccc3c2CCN(C(=O)C2CC(c4cccc(Cl)c4F)=NO2)C3C(=O)Nc2ccc(C(=O)O)cc2)CC1=O (single isomer, unassigned) [Example 280, 4-(2-(3-(3-chloro-2-fluorophenyl)-4,5-dihydroisoxazole-5-carbonyl)-5-(4-methyl-3-oxopiperazin-1-yl)-1,2,3,4-tetrahydroisoquinoline-1-carboxamido)benzoic acid, TFA salt] | – | – | – | – | Ki [1, 6]: 36.5 nM; Ki [2, 5]: 283 nM |
| CN1CCN(c2cccc3c2CCN(C(=O)C2CC(c4cccc(Cl)c4F)=NO2)C3C(=O)Nc2ccc(C(=O)O)cc2)CC1=O (single isomer, unassigned) [Example 281, 4-(2-(3-(3-chloro-2-fluorophenyl)-4,5-dihydroisoxazole-5-carbonyl)-5-(4-methyl-3-oxopiperazin-1-yl)-1,2,3,4-tetrahydroisoquinoline-1-carboxamido)benzoic acid, TFA] | – | – | – | – | Ki ([1]; read-out: Factor XIa Ki, measured at 25° C., TFA): 12.8 nM; Ki ([2]; measured at 25° C. (no asterisk), TFA): 79 nM |
| CN1CCN(c2cccc3c2CCN(C(=O)C2CC(c4cccc(Cl)c4F)=NO2)C3C(=O)Nc2ccc(C(=O)O)cc2)CC1=O (single isomer, unassigned) [Example 282, 4-(2-(3-(3-chloro-2-fluorophenyl)-4,5-dihydroisoxazole-5-carbonyl)-5-(4-methyl-3-oxopiperazin-1-yl)-1,2,3,4-tetrahydroisoquinoline-1-carboxamido)benzoic acid, TFA salt] | – | – | – | – | Ki [1, 6]: < 5 nM; Ki [2, 5]: 1.87 nM |
| CN1CCN(c2cccc3c2CCN(C(=O)C2CC(c4cccc(Cl)c4F)=NO2)C3C(=O)Nc2ccc(C(=O)O)cc2)CC1=O (single isomer, unassigned) [Example 283, 4-(2-(3-(3-chloro-2-fluorophenyl)-4,5-dihydroisoxazole-5-carbonyl)-5-(4-methyl-3-oxopiperazin-1-yl)-1,2,3,4-tetrahydroisoquinoline-1-carboxamido)benzoic acid, TFA salt] | – | – | – | – | Ki [1, 6]: 8.27 nM; Ki [2, 5]: 75.3 nM |
| O=C(NC12CCC(C(=O)O)(CC1)CC2)[C@@H]1c2cccc(-c3cncnc3)c2CCN1C(=O)c1cn(-c2cccc(Cl)c2F)nn1 (single isomer, unassigned; enantiomer a) [Example 144, 4-(2-{[1-(3-Chloro-2-fluorophenyl)-1H-1,2,3-triazol-4-yl]carbonyl}-5-(pyrimidin-5-yl)-1,2,3,4-tetrahydroisoquinoline-1-amido)bicyclo[2.2.2]octane-1-carboxylic acid, 1 TFA (enantiomer A)] | 3030 | – | – | 11600 | – |
| O=C(NC12CCC(C(=O)O)(CC1)CC2)[C@H]1c2cccc(-c3cncnc3)c2CCN1C(=O)c1cn(-c2cccc(Cl)c2F)nn1 (single isomer, unassigned; enantiomer b) [Example 145, 4-(2-{[1-(3-Chloro-2-fluorophenyl)-1H-1,2,3-triazol-4-yl]carbonyl}-5-(pyrimidin-5-yl)-1,2,3,4-tetrahydroisoquinoline-1-amido)bicyclo[2.2.2]octane-1-carboxylic acid, 1 TFA (enantiomer B)] | 7.87 | – | – | 252 | – |
